This note sets out measurements from article PMC5459853, “Cathepsin S inhibition combines control of systemic and peripheral pathomechanisms of autoimmune tissue injury” (Scientific Reports, 2017).

As a reminder, the IC50 is the point on the concentration scale where inhibition reaches its midpoint.

Experiment [1] has as its target Human Cat-V (Homo sapiens, UniProt O60911). Nature of the experiment: Enzymatic isoform-selectivity assay, Cat-V. The format is biochemical. Conditions: read-out: apparent IC50, Cat V. Here is the method:
RO5459072 was provided by F. Hoffmann-La Roche, Ltd., Basel, Switzerland. It is a competitive inhibitor of the active site of Cat-S and its nitrile function allows covalent reversible inhibition of Cat-S. The synthesis of RO5459072 has been described in WO 2010121918 and WO 2013068434. Recombinant cathepsins were produced in-house or were purchased from commercial vendors. Initial enzymatic assays to determine isoform-selectivity in vitro were performed as previously described, [23]. […] For this the Cat-S-dependent hydrolysis of the fluorogenic substrate Z-Phe-Arg-AMC (Sigma Aldrich) was followed at various inhibitor concentrations. The active fraction of Cat-S was detemined as 70% with a HPLC assay measuring modification of Cat-S with the covalent inhibitor LHVS. The buffer (100 mM potassium phosphate, 50 mM NaCl, 5 mM EDTA, 5 mM TCEP, pH 6) was thoroughly degassed prior to perfoming measurements to prevent oxidation of the catalytic cystein residue by dissolved oxygen. For the Ki-determination the substrate was employed at 10 µM = KM. All kinetic measurements were performad on a SFM-3000 stopped-flow instrument (Bio-Logic Science Instruments) and data were analyzed with GraphPad Prism v5.

Experiment [2] concerns MRL-(Fas)lpr mice. Nature of the experiment: Experimental lupus nephritis, late onset of treatment week 15 to 19. It is filed as in vivo. Conditions: late onset week 15-19. As for the experimental part: To further assess the potency of Cat-S inhibition to control advanced lupus nephritis we performed identical experiments with the highest dose of RO5459072 and MMF, which were not initiated before week 15 of age and continued for only 4 weeks and terminated again at week 19.
(§1) Four-week-old female MRL-(Fas)lpr mice were purchased from Harlan Winkelmann (Borchen, Germany) and kept under pathogen-free conditions in a 12 hour light and dark cycle with free access to food and water. All animal experiments were performed in accordance with the European protection laws of animal welfare, and with approval by the local government authorities Regierung von Oberbayern (reference number: 55.2.1-54-2532.2-11-12). At 11 or 15 weeks of age only mice with proteinuria (Albustix, Bayer AG, Leverkusen, Germany) were randomized into five different groups (n = 10) receiving different medicated diets: Three groups were fed with chow mixed with either 3, 10 or 30 mg/kg/day RO5459072, another group’s chow was mixed with 100 mg/kg/day mycophenolate mofetil (MMF), and one group received a standard diet (vehicle). The dose of MMF was chosen according to several studies reporting strong efficacy on SLE and lupus nephritis in MRL-(Fas)lpr mice[24]–[26]. […] At the age of 19 weeks all mice were sacrificed by cervical dislocation. Blood and urine samples were collected at different time points as indicated. In other experiments 7 week old female MRL-(Fas)lpr mice were randomized into three groups (n = 3) to receive a single intravenous injection of 10 µg sterile recombinant Cat-S and one group receiving vehicle (100 µl sterile PBS). One of the Cat-S groups was pretreated with 30 mg/kg/day RO5459072 starting one week prior to Cat-S injection; another group was pretreated with a total of four daily intra-peritoneal injections of the PAR-2 inhibitor GB83 (10 mg/kg).
Kidney tissue samples were collected from all mice and fixed overnight in 4% buffered formalin. Subsequently the fixed tissue samples were embedded in paraffin and cut into 4 µm thick serial sections. Kidney paraffin sections were stained with periodic acid-Schiff (PAS) reaction using standardized protocols as described. Scoring of lupus nephritis activity and chronicity indices was performed according to human lupus nephritis, [43]. Methenamine silver staining was performed on paraffin embedded kidney sections and semiquantitatively scored form 0–3 by a blinded observer. For immunostaining the following primary antibodies were used: anti-mouse CD3 (Abcam, Cambridge, UK), complement C3c (Biobyt Ltd, Cambridge, UK), CD31 (Dianova GmbH, Hamburg, Germany), WT1 (Santa Cruz Biotechnology, Dallas, Texas) and nephrin (Acris Antibodies, San Diego, CA). The immunostaining for C3c and CD31 were analyzed using the ImageJ software by measuring positively stained area and dividing it by the total area of the glomerulus and reported as percentage of +ve area. Sections stained for WT1/nephrin and CD3 were evaluated by counting positive cells per glomerulus. All the morphometric analysis were carried out in a blinded fashion.
(§2) Urinary albumin/creatinine ratios were determined using the Mouse Albumin ELISA Quantitation set (Bethyl Laboratories, Montgomery, TX) and the Creatinine FS kit (DiaSys Diagnostic Systems, Holzheim, Germany)[44]. BUN levels were determined in plasma samples using a Urea FS kit (DiaSys Diagnostic Systems). Mouse IgM, IgG and its isotypes IgG1, IgG2a and IgG2b plasma levels were measured using ELISA Sets (Bethyl Laboratories) at a plasma dilution of 1:1,000 to 1:100,000. Double-stranded DNA IgG and IgM antibodies were quantified as described. Briefly, 96 well Nunc-Immuno plates (Thermo Fisher Scientific, Roskilde, Denmark) were coated with poly-L-lysine (1:1 diluted with PBS) and incubated for two hours. After washing the plates, the plates were coated with 1 µg/ml mouse tail dsDNA sparing the wells for standards, which were coated with anti-mIgG and anti-mIgM (Bethyl Laboratories). […]

The subject of experiment [3] is MRL-(Fas)lpr mice. The experiment can be described thus: Intravenous recombinant Cat-S injection: albuminuria and glomerular ultrastructure (TEM). It is filed as in vivo. Conditions: 10 µg recombinant Cat-S i.v. Here is the method:
as §1
as §2, with “[…] Absorbance was measured at 450 nm using a Tecan Microplate Reader (Biotek, Winnoski, VT). Indirect immunofluorescence was used to quantify ANA in” for “After washing the plates, the plates were coated with 1 µg/ml”, “plasma.” for “tail dsDNA sparing the wells for standards, which were coated with anti-mIgG and anti-mIgM (Bethyl Laboratories).”
Mouse kidney tissue was fixed in 2% paraformaldehyde/2% glutaraldehyde and 0.1M sodium phosphate buffer (pH 7.4) for 24 hours and processed as described. Samples were analyzed with a 1200EX electron microscope (JEOL, Tokyo, Japan).

Each structure is given as a SMILES string. Entries after “also recorded” stand apart in the source; their conditions may differ.

Sequence of Human Cat-V (O60911 114-334): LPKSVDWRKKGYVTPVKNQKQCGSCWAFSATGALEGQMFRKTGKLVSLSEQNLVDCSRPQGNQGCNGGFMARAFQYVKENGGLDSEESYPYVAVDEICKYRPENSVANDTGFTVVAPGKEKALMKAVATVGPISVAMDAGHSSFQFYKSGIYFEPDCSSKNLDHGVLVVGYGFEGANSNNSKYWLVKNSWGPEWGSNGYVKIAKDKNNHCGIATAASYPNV

Consider `Cn1cc(-c2ccc(S(=O)(=O)[C@@H]3C[C@@H](C(=O)NC4(C#N)CC4)N(C(=O)C4(C(F)(F)F)CC4)C3)c(C(F)(F)F)c2)cn1` [RO5459072], for which the IC50 in experiment [1] was 700 nM. For the same molecule, in experiment [2], the “lupus nephritis disease activity index” value is “significantly reduced”; the “lupus nephritis disease chronicity index” value is given as “failed to significantly suppress”; the “proteinuria and BUN at week 19 compared to control mice” value is reported as “significantly reduced”. Besides, the “plasma IgG and its isotypes and anti-dsDNA IgG” value in experiment [2] (highest dose of RO5459072, MMF) was “significantly suppressed”. The Cat-S-induced albuminuria result in experiment [3] (30 min, RO5459072 30 mg/kg/day pretreatment, GB83 10 mg/kg i.p.) is given as “completely prevented; also recorded: entirely blocked”. Moreover, in experiment [3] (24 h), the “Cat-S-induced glomerular endothelial cell injury (TEM)” value is listed as “completely prevented”.
